Assay results published in patent publication US11578056B2, “Solid forms comprising (S)-2-(2,6-dioxopiperidin-3-yl)-4-((2-fluoro-4-((3-morpholinoazetidin-1-yl)methyl)benzyl)amino)isoindoline-1,3-dione and salts thereof, and compositions comprising and methods of using the same” (Celgene Corporation, priority 2019, dated 2023).

Experiments:
Assay type in all cases: physicochemical
[1] = Dynamic vapor sorption (DVS) hygroscopicity
Protocol: Dynamic vapor sorption (DVS) was measured using DVS advantage (Surface Measurement Systems Ltd). The samples were tested under isotherm (25° C.) at a targeted RH of 0 to 95% full cycle in step mode. For an isotherm test, the chamber temperature is maintained by a water bath at constant 25.0±1.0° C. The relative humidity in the sample chamber is generated by combining different flows of wet and dry nitrogen with variable flow rates. The analysis was performed in 10% RH increments. Sampling rate is 1 sec save data rate is 20 sec. The dm/dt (%) value was set at 0.001 with a dm/dt window of 5 min., a minimum stability duration time of 10 min, and a maximum stage time of 180 min. The sample's equilibrium weight corresponding to each RH was recorded. A sorption isotherm is obtained by plotting equilibrium moisture content versus RH.

[2] = Estimated solubility of free base and salt forms in solvents (aliquot addition, visual)
Protocol: The experiments were carried out by adding the test solvent in aliquots to weighed portions of solid. Whether dissolution had occurred was judged by visual inspection after addition of each solvent aliquot. Solubility numbers were calculated by dividing the total amount of solvent used to dissolve the sample by the weight of the sample. […] The solubility number is expressed as “greater than or equal to” if dissolution occurred on addition of the first solvent aliquot.

[3] = Solid state stability of free base and salt forms under stress storage conditions;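 on Physical stability: Physical stability judged by XRPD check of crystalline form at end of study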
Protocol: The solid samples were analyzed for both chemical and chiral stability.

## Cl.Cl.O=C1CC[C@H](N2C(=O)c3cccc(NCc4ccc(CN5CC(N6CCOCC6)C5)cc4F)c3C2=O)C(=O)N1
[1]; below 90% RH
  hygroscopicity (DVS): highly hygroscopic
[1]; from 80% RH to 90% RH
  moisture gain (DVS): ~6.7%
[1]; from 90 to 80% RH
  water content released during desorption (DVS): ~7.0%
[1]; from dry up to 80% RH
  moisture picked up (DVS): ~8.0 % wt

## O=C1CC[C@H](N2C(=O)c3cccc(NCc4ccc(CN5CC(N6CCOCC6)C5)cc4F)c3C2=O)C(=O)N1 [Free Base]
[2]; 2-methyl tetrahydrofuran
  Solubility: 30 mg/mL
[2]; 2-propanol
  Solubility: <1 mg/mL
[2]; 95:5 2-PrOH/water
  Solubility: 2 mg/mL
[2]; 95:5 ACN/water
  Solubility: 27 mg/mL
[2]; 95:5 THF/water
  Solubility: 20 mg/mL
[2]; 95:5 acetone/water
  Solubility: 31 mg/mL
[2]; N-methyl pyrrolidone
  Solubility: 31 mg/mL
[2]; acetone
  Solubility: 52 mg/mL
[2]; acetonitrile
  Solubility: 33 mg/mL
[2]; anisole
  Solubility: 26 mg/mL
[2]; dichloromethane
  Solubility: 59 mg/mL
[2]; dimethylacetamide
  Solubility: 34 mg/mL
[2]; ethanol
  Solubility: 1 mg/mL
[2]; ethyl acetate
  Solubility: 33 mg/mL
[2]; ethyl formate
  Solubility: 30 mg/mL
[2]; isopropyl acetate
  Solubility: 6 mg/mL
[2]; methanol
  Solubility: 2 mg/mL
[2]; methyl ethyl ketone
  Solubility: 29 mg/mL
[2]; methyl tert-butyl ether
  Solubility: <1 mg/mL
[2]; nitromethane
  Solubility: 34 mg/mL
[2]; tetrahydrofuran
  Solubility: 28 mg/mL
[2]; toluene
  Solubility: 3 mg/mL
[2]; water
  Solubility: <1 mg/mL

## O=C1CC[C@H](N2C(=O)c3cccc(NCc4ccc(CN5CC(N6CCOCC6)C5)cc4F)c3C2=O)C(=O)N1 [Free base]
[3]; 40° C.
  Chemical (%): 98.44%
  Chiral (%): 99.03%
[3]; 40° C./80% RH
  Chemical (%): 98.56%
  Chiral (%): 99.02%
[3]; 60° C.
  Chemical (%): 95.80%
  Chiral (%): 98.69%
  Physical stability: Unstable
[3]; 60° C./75% RH
  Chemical (%): 98.10%
  Chiral (%): 83.04%
  Physical stability: Unstable
[3]; 70° C.
  Chemical (%): 85.68%
  Chiral (%): 95.57%
  Physical stability: Unstable
[3]; 70° C./80% RH
  Chemical (%): 93.29%
  Chiral (%): 52.01%
  Physical stability: Unstable
[3]; Ambient
  Chemical (%): 98.95%
  Chiral (%): 99.16%

## Cl.O=C1CC[C@H](N2C(=O)c3cccc(NCc4ccc(CN5CC(N6CCOCC6)C5)cc4F)c3C2=O)C(=O)N1 [HC1 salt]
[3]; 40° C.
  Chemical (%): 99.13%
  Chiral (%): 99.29%
  Physical stability: Stable
[3]; 40° C./80% RH
  Chemical (%): 99.56%
  Chiral (%): 99.22%
  Physical stability: Stable
[3]; 60° C.
  Chemical (%): 99.35%
  Chiral (%): 99.02%
  Physical stability: Stable
[3]; 60° C./75% RH
  Chemical (%): 99.56%
  Chiral (%): 98.70%
  Physical stability: Stable
[3]; 70° C.
  Chemical (%): 99.32%
  Chiral (%): 99.13%
  Physical stability: Stable
[3]; 70° C./80% RH
  Chemical (%): 99.43%
  Chiral (%): 98.91%
  Physical stability: Stable
[3]; Ambient
  Chemical (%): 99.08%
  Chiral (%): 99.26%

## Cl.O=C1CC[C@H](N2C(=O)c3cccc(NCc4ccc(CN5CC(N6CCOCC6)C5)cc4F)c3C2=O)C(=O)N1 [HCl Salt]
[2]; 2-methyl tetrahydrofuran
  Solubility: <1 mg/mL
[2]; 2-propanol
  Solubility: <1 mg/mL
[2]; 95:5 2-PrOH/water
  Solubility: <1 mg/mL
[2]; 95:5 ACN/water
  Solubility: 3 mg/mL
[2]; 95:5 THF/water
  Solubility: 1 mg/mL
[2]; 95:5 acetone/water
  Solubility: <1 mg/mL
[2]; N-methyl pyrrolidone
  Solubility: 1 mg/mL
[2]; acetone
  Solubility: <1 mg/mL
[2]; acetonitrile
  Solubility: <1 mg/mL
[2]; anisole
  Solubility: <1 mg/mL
[2]; dichloromethane
  Solubility: <1 mg/mL
[2]; dimethylacetamide
  Solubility: 1 mg/mL
[2]; dimethylsulfoxide
  Solubility: 38 mg/mL
[2]; ethanol
  Solubility: <1 mg/mL
[2]; ethyl acetate
  Solubility: <1 mg/mL
[2]; ethyl formate
  Solubility: <1 mg/mL
[2]; isopropyl acetate
  Solubility: <1 mg/mL
[2]; methanol
  Solubility: 2 mg/mL
[2]; methyl ethyl ketone
  Solubility: <1 mg/mL
[2]; methyl tert-butyl ether
  Solubility: <1 mg/mL
[2]; nitromethane
  Solubility: <1 mg/mL
[2]; tetrahydrofuran
  Solubility: <1 mg/mL
[2]; toluene
  Solubility: <1 mg/mL
[2]; water
  Solubility: 2 mg/mL

## Fumarate
[3]; 40° C.
  Chemical (%): 98.64%
  Chiral (%): 95.39%
  Physical stability: Stable
[3]; 40° C./80% RH
  Chemical (%): 98.69%
  Chiral (%): 94.55%
  Physical stability: Stable
[3]; 60° C.
  Chemical (%): 97.43%
  Chiral (%): 95.54%
  Physical stability: Stable
[3]; 60° C./75% RH
  Chemical (%): 98.19%
  Chiral (%): 93.14%
  Physical stability: Stable
[3]; 70° C.
  Chemical (%): 95.94%
  Chiral (%): 95.11%
  Physical stability: Stable
[3]; 70° C./80% RH
  Chemical (%): 93.79%
  Chiral (%): 91.52%
  Physical stability: Stable
[3]; Ambient
  Chemical (%): 98.77%
  Chiral (%): 95.82%
[2]; 2-methyl tetrahydrofuran
  Solubility: <1 mg/mL
[2]; 2-propanol
  Solubility: <1 mg/mL
[2]; 95:5 2-PrOH/water
  Solubility: 1 mg/mL
[2]; 95:5 ACN/water
  Solubility: 2 mg/mL
[2]; 95:5 THF/water
  Solubility: 8 mg/mL
[2]; 95:5 acetone/water
  Solubility: 2 mg/mL
[2]; N-methyl pyrrolidone
  Solubility: 17 mg/mL
[2]; acetone
  Solubility: <1 mg/mL
[2]; acetonitrile
  Solubility: <1 mg/mL
[2]; anisole
  Solubility: <1 mg/mL
[2]; dichloromethane
  Solubility: <1 mg/mL
[2]; dimethylacetamide
  Solubility: 23 mg/mL
[2]; dimethylsulfoxide
  Solubility: 36 mg/mL
[2]; ethanol
  Solubility: <1 mg/mL
[2]; ethyl acetate
  Solubility: <1 mg/mL
[2]; ethyl formate
  Solubility: <1 mg/mL
[2]; isopropyl acetate
  Solubility: <1 mg/mL
[2]; methanol
  Solubility: 3 mg/mL
[2]; methyl ethyl ketone
  Solubility: <1 mg/mL
[2]; methyl tert-butyl ether
  Solubility: <1 mg/mL
[2]; nitromethane
  Solubility: <1 mg/mL
[2]; tetrahydrofuran
  Solubility: 1 mg/mL
[2]; toluene
  Solubility: <1 mg/mL
[2]; water
  Solubility: 2 mg/mL

## Tosylate
[3]; 40° C.
  Chemical (%): 99.18%
  Chiral (%): 98.52%
  Physical stability: Stable
[3]; 40° C./80% RH
  Chemical (%): 98.84%
  Chiral (%): 98.48%
  Physical stability: Stable
[3]; 60° C.
  Chemical (%): 99.01%
  Chiral (%): 98.46%
  Physical stability: Stable
[3]; 60° C./75% RH
  Chemical (%): 96.76%
  Chiral (%): 98.10%
  Physical stability: Stable
[3]; 70° C.
  Chemical (%): 98.58%
  Chiral (%): 98.43%
  Physical stability: Stable
[3]; 70° C./80% RH
  Chemical (%): 95.73%
  Chiral (%): 97.64%
  Physical stability: Stable
[3]; Ambient
  Chemical (%): 99.19%
  Chiral (%): 98.49%
[2]; 2-methyl tetrahydrofuran
  Solubility: <1 mg/mL
[2]; 2-propanol
  Solubility: <1 mg/mL
[2]; 95:5 2-PrOH/water
  Solubility: <1 mg/mL
[2]; 95:5 ACN/water
  Solubility: 17 mg/mL
[2]; 95:5 THF/water
  Solubility: 16 mg/mL
[2]; 95:5 acetone/water
  Solubility: 3 mg/mL
[2]; N-methyl pyrrolidone
  Solubility: 17 mg/mL
[2]; acetone
  Solubility: <1 mg/mL
[2]; acetonitrile
  Solubility: 1 mg/mL
[2]; anisole
  Solubility: <1 mg/mL
[2]; dichloromethane
  Solubility: 1 mg/mL
[2]; dimethylacetamide
  Solubility: 30 mg/mL
[2]; dimethylsulfoxide
  Solubility: 34 mg/mL
[2]; ethanol
  Solubility: <1 mg/mL
[2]; ethyl acetate
  Solubility: <1 mg/mL
[2]; ethyl formate
  Solubility: <1 mg/mL
[2]; isopropyl acetate
  Solubility: <1 mg/mL
[2]; methanol
  Solubility: 3 mg/mL
[2]; methyl ethyl ketone
  Solubility: <1 mg/mL
[2]; methyl tert-butyl ether
  Solubility: <1 mg/mL
[2]; nitromethane
  Solubility: 4 mg/mL
[2]; tetrahydrofuran
  Solubility: <1 mg/mL
[2]; toluene
  Solubility: <1 mg/mL
[2]; water
  Solubility: 2 mg/mL
